# Measurements: ChEMBL document CHEMBL5042547, “Activable Targeted Protein Degradation Platform Based on Light-triggered Singlet Oxygen” (J Med Chem, 2022)
# The source made the active and inactive calls. The rule behind the calls is not given here.
# Experiments:
# [1] = target: T1, Estrogen receptor (Homo sapiens) (UniProt P03372); test: Induction of degradation of human ERalpha in human MCF7 cells at 0.01 to 1 uM incubated for 6 hrs followed by irradiated light of 460 nm for 45 mins measured after 3 hrs by immunoblot analysis; format: cell-based; details: dose 0.01-1 µM, time 9.0 hrs
# T1 sequence (whole entry): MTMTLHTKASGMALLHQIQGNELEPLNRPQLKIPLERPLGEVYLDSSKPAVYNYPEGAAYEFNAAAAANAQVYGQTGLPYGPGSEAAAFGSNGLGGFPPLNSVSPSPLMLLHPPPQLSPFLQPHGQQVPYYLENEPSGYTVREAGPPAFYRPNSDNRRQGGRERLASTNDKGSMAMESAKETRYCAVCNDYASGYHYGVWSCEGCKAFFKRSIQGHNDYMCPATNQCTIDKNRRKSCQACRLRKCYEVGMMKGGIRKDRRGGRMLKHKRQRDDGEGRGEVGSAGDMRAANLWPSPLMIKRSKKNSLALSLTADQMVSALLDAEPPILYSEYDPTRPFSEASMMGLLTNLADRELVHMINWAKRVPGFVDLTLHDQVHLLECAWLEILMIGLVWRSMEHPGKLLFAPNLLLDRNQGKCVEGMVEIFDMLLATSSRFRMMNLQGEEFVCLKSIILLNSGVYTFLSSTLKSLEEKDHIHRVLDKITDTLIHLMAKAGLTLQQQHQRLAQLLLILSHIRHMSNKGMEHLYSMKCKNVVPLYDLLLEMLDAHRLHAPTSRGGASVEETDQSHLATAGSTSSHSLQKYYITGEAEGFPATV
# MCF7 [2] = test: Induction of cell cycle arrest in human MCF7 cells assessed as accumulation of cells at G1 phase at 1 uM after irradiation for 30 mins by propidium iodide based flow cytometry analysis; format: functional
# MCF7 [3] = test: Induction of apoptosis in human MCF7 cells at 1 uM after irradiation for 30 mins annexin V-FITC/PI double staining method; format: functional, cell-based
# MCF7 [4] = test: Antiproliferative activity against human MCF7 cells under dark condition; format: functional, cell-based
# [5] = target: T1, Estrogen receptor (Homo sapiens); test: Induction of degradation of human ERalpha in human MCF7 cells by generation of singlet oxygen at 1 uM in presence of glutathione by fluorescent probe based DCFH-DA assay; format: cell-based
# [6] = Drug uptake in human MCF7 cells assessed as peak mean fluorescence intensity measured after 6 to 12hrs by cytometric analysis; format: ADME, cell-based
# Estrogen receptor [7] = target: T2, Estrogen receptor (Homo sapiens, UniProt P03372); test: Binding affinity to human ERalpha by competitive fluorometric receptor binding assay
# T2 sequence (P03372 whole entry): T1 sequence (whole entry)
# MCF7 [8] = test: Antiproliferative activity against human MCF7 cells assessed as cell viability at irradiation for 45 mins daily for 3 days; format: functional, cell-based; details: MCF7, light or radiation study
# [9] = target: T1, Estrogen receptor (Homo sapiens); test: Induction of degradation of human ERalpha by generation of singlet oxygen incubated for 3 hrs followed by irradiated with 460 +/- 10 nm LED light for 30 mins by circular dichroism spectroscopy; details: time 210.0 min
# [10] = target: T1, Estrogen receptor (Homo sapiens); test: Induction of degradation of human ERalpha by generation of singlet oxygen incubated for 3 hrs followed by irradiated with 460 +/- 10 nm LED light for 15 mins by circular dichroism spectroscopy; details: time 195.0 min
# [11] = target: T1, Estrogen receptor (Homo sapiens); test: Binding affinity to human ERalpha assessed as change in enthalpy by isothermal titration calorimetry
# [12] = target: T1, Estrogen receptor (Homo sapiens); test: Binding affinity to human ERalpha assessed as change in entropy by isothermal titration calorimetry
# [13] = target: T1, Estrogen receptor (Homo sapiens); test: Induction of degradation of human ERalpha irradiated with 460 +/- 10 nm LED light for 15 mins by gel electrophoresis
# [14] = target: T1, Estrogen receptor (Homo sapiens); test: Induction of degradation of human ERalpha irradiated with 460 +/- 10 nm LED light for 30 to 45 mins by gel electrophoresis; details: time 30-45 min
# [15] = target: T1, Estrogen receptor (Homo sapiens); test: Induction of degradation of human ERalpha in human MCF7 cells at 1 uM incubated for 1 to 6 hrs followed by irradiated light of 460 nm for 30 mins measured after 3 hrs by immunoblot analysis; format: cell-based; details: time 4.5-9.5 hrs
# [16] = target: T1, Estrogen receptor (Homo sapiens); test: Induction of degradation of human ERalpha in human MCF7 cells at 1 uM incubated for 1 to 12 hrs in dark after 3 hrs by immunoblot analysis; format: cell-based; details: time 4-15 hrs
# [17] = target: T1, Estrogen receptor (Homo sapiens); test: Induction of degradation of human ERalpha in human MCF7 cells by generation of singlet oxygen at 1 uM in presence of dithiothreitol by fluorescent probe based DCFH-DA assay; format: cell-based
# [18] = target: T1, Estrogen receptor (Homo sapiens); test: Induction of degradation of human ERalpha in human MCF7 cells by generation of singlet oxygen at 1 uM in presence of N-acetyl-L-cysteine by fluorescent probe based DCFH-DA assay; format: cell-based
# [19] = target: T1, Estrogen receptor (Homo sapiens); test: Induction of degradation of human ERalpha in MCF7 cells at 0.1 uM incubated for 6 hrs followed by irradiation for 30 min measured after 2 hrs; format: cell-based; details: time 8.5 hrs
# [20] = target: T1, Estrogen receptor (Homo sapiens); test: Induction of degradation of human ERalpha in MCF7 cells at 0.1 uM incubated for 6 hrs followed by irradiation for 30 min measured after 2 to 8 hrs; format: cell-based; details: time 8.5-14.5 hrs, TDE = time-dependent effect
# [21] = target: T1, Estrogen receptor (Homo sapiens); test: Induction of degradation of human ERalpha in MCF7 cells assessed as ERalpha level at 0.1 uM incubated for 6 hrs followed by irradiation for 30 min measured after 16 hrs; format: cell-based; details: time 22.5 hrs
# [22] = target: T1, Estrogen receptor (Homo sapiens); test: Induction of degradation of human ERalpha in MCF7 cells at 1 uM incubated for 6 hrs followed by irradiation for 30 min measured for 24 hrs; format: cell-based; details: time 30.5 hrs
# Estrogen receptor [23] = target: T2, Estrogen receptor; test: Induction of degradation of human ERalpha in MCF7 cells irradiated with 460 light for 30 mins; format: cell-based
# Estrogen receptor [24] = target: T2, Estrogen receptor; test: Induction of degradation of human ERalpha in MCF7 cells irradiated with 460 light for 45 mins; format: cell-based
# [25] = target: T1, Estrogen receptor (Homo sapiens); test: Induction of degradation of human ERalpha in MCF7 cells at 0.01 to 0.1 uM irradiated with 460 light for 15 to 60 mins; format: cell-based; details: dose 0.01-0.1 µM, time 15-60 min
# [26] = target: T1, Estrogen receptor (Homo sapiens); test: Induction of human ERalpha degradation-mediated apoptosis in human MCF7 cells assessed as loss of mitochondrial membrane potential at 0.01 uM irradiated for 45 mins by TMRM fluorescence based cytometric analysis; format: cell-based
# [27] = target: T1, Estrogen receptor (Homo sapiens); test: Induction of human ERalpha degradation-mediated apoptosis in human MCF7 cells assessed as increase in cytochrome c release from mitochondria at 0.01 uM irradiated for 45 mins by ELISA analysis
# [28] = target: T1, Estrogen receptor (Homo sapiens); test: Induction of human ERalpha degradation-mediated apoptosis in human MCF7 cells assessed as increase in expression level of Bax at 0.01 uM by ELISA analysis; format: cell-based
# [29] = target: T1, Estrogen receptor (Homo sapiens); test: Induction of human ERalpha degradation-mediated apoptosis in human MCF7 cells assessed as increase in expression level of Bak at 0.01 uM by ELISA analysis; format: cell-based
# [30] = target: T1, Estrogen receptor (Homo sapiens); test: Induction of human ERalpha degradation-mediated apoptosis in human MCF7 cells assessed as increase in expression level of p53 at 0.01 uM by ELISA analysis; format: cell-based
# [31] = target: T1, Estrogen receptor (Homo sapiens); test: Induction of human ERalpha degradation-mediated apoptosis in human MCF7 cells assessed as increase in expression level of Bcl-2 at 0.01 uM irradiated for 45 min by ELISA analysis; format: cell-based
# [32] = target: T1, Estrogen receptor (Homo sapiens); test: Induction of human ERalpha degradation in human MCF7 cells assessed as increase in response of cell to ABT-263-mediated Bcl-2 inhibition; format: cell-based
# MCF-10A [33] = test: Cytotoxicity against human MCF-10A cells upto 100 uM under dark condition; format: toxicity, cell-based
# MCF7 [34] = test: Antiproliferative activity against human MCF7 cells assessed as cell viability at irradiation for 15 mins measured after 72 hrs; format: functional, cell-based; details: MCF7, light or radiation study
# MCF7 [35] = test: Antiproliferative activity against human MCF7 cells assessed as cell viability at irradiation for 30 mins measured after 72 hrs; format: functional, cell-based; details: MCF7, light or radiation study
# MCF7 [36] = test: Antiproliferative activity against human MCF7 cells assessed as cell viability at irradiation for 45 mins measured after 72 hrs; format: functional, cell-based; details: MCF7, light or radiation study
# MCF-10A [37] = test: Cytotoxicity against human MCF-10A cells upto 100 uM assessed as cell viability at irradiation for 15 to 45 mins measured after 72 hrs; format: toxicity, cell-based; details: time 72.25-72.75 hrs
# MCF7 [38] = test: Antiproliferative activity against human MCF7 cells assessed as cell viability at irradiation for 15 mins daily for 3 days; format: functional, cell-based; details: MCF7, light or radiation study
# MCF7 [39] = test: Antiproliferative activity against human MCF7 cells assessed as cell viability at irradiation for 30 mins daily for 3 days; format: functional, cell-based; details: MCF7, light or radiation study
# MCF7 [40] = test: Induction of cell cycle arrest in human MCF7 cells assessed as accumulation of cells at G1 phase after irradiation by propidium iodide based flow cytometry analysis; format: functional; details: time 15-45 min, TDE = time-dependent effect
# MCF7 [41] = test: Induction of cell cycle arrest in human MCF7 cells assessed as decrease of cells at S phase after irradiation by propidium iodide based flow cytometry analysis; format: functional; details: time 15-45 min, TDE = time-dependent effect
# MCF7 [42] = test: Induction of cell cycle arrest in human MCF7 cells assessed as decrease of cells at G2/M phase after irradiation by propidium iodide based flow cytometry analysis; format: functional; details: time 15-45 min, TDE = time-dependent effect
# MCF7 [43] = test: Induction of cell cycle arrest in human MCF7 cells assessed as cells at S phase after irradiation measured after 16 hrs by propidium iodide based flow cytometry analysis; format: functional
# MCF7 [44] = test: Induction of cell cycle arrest in human MCF7 cells assessed accumulation of cells at G1 phase after irradiation measured after 16 hrs by propidium iodide based flow cytometry analysis; format: functional
# MCF7 [45] = test: Induction of cell cycle arrest in human MCF7 cells assessed as transition of cells from G1 to S phase after irradiation measured after 24 hrs by propidium iodide based flow cytometry analysis; format: functional
# [46] = target: T1, Estrogen receptor (Homo sapiens); test: Induction of degradation of human ERalpha in human MCF7 cells assessed as decrease in expression of cyclin D1 gene at 24 hrs; format: cell-based
# [47] = target: T1, Estrogen receptor (Homo sapiens); test: Induction of degradation of human ERalpha in human MCF7 cells assessed as decrease in expression of c-MYC gene at 24 hrs; format: cell-based
# MCF7 [48] = test: Induction of apoptosis in human MCF7 cells assessed as late apoptotic cells at 0.01 to 1 uM irradiated 30 mins for 3 days by annexin V-FITC/PI double staining method; format: functional, cell-based; details: dose 0.01-1 µM
# MCF7 [49] = test: Antiproliferative activity against human MCF7 cells in presence of glutathione irradiated daily; format: functional, cell-based
# MCF7 [50] = test: Antiproliferative activity against human MCF7 cells in presence of dithiothreitol irradiated daily; format: functional, cell-based
# MCF7 [51] = test: Antiproliferative activity against human MCF7 cells in presence of N-acetyl-L-cysteine irradiated daily; format: functional, cell-based
structure (smiles),measurement,setting,value
Brc1ccc(-c2ccc(N(c3ccccc3)c3ccccc3)cc2)c2nsnc12,Activity,[1],inactive
same,Activity,MCF7 [2],inactive
same,Activity,MCF7 [3],inactive
C[C@]12CC[C@@H]3c4ccc(O)cc4CC[C@H]3[C@@H]1CC[C@@]2(O)C#Cc1ccc(-c2ccc(N(c3ccccc3)c3ccccc3)cc2)c2nsnc12,Activity,MCF7 [4],inactive
same,Activity,[5],inactive
same,Drug uptake,[6],Active
same,Ki,Estrogen receptor [7],0.0728 µM
same,IC50,MCF7 [8],0.022 µM
same,Activity,[9],Active
same,Activity,[10],Active
same,deltaH,[11],-4.39 kcal/mol
same,deltaS,[12],52.2 J/mol/K
same,Activity,[13],Active
same,Activity,[14],Active
same,Activity,[15],Active
same,Activity,[16],Active
same,Activity,[17],inactive
same,Activity,[18],inactive
same,Activity,[19],Active
same,Activity,[20],Tde
same,Activity,[21],90%
same,Activity,[22],Active
same,EC50,Estrogen receptor [23],17 µM
same,EC50,Estrogen receptor [24],0.5 µM
same,Activity,[25],Active
same,Activity,[26],Active
same,Activity,[27],Active
same,Activity,[28],Active
same,Activity,[29],Active
same,Activity,[30],Active
same,Activity,[31],inactive
same,Activity,[32],Active
same,Activity,MCF-10A [33],Non-Toxic
same,IC50,MCF7 [34],8.9 µM
same,IC50,MCF7 [35],6.1 µM
same,IC50,MCF7 [36],5.9 µM
same,Activity,MCF-10A [37],Non-Toxic
same,IC50,MCF7 [38],3.5 µM
same,IC50,MCF7 [39],0.11 µM
same,Activity,MCF7 [40],Tde
same,Activity,MCF7 [41],Tde
same,Activity,MCF7 [42],Tde
same,Activity,MCF7 [43],inactive
same,Activity,MCF7 [44],Active
same,Activity,MCF7 [45],Active
same,Activity,[46],Active
same,Activity,[47],Active
same,Activity,MCF7 [48],Active
same,Activity,MCF7 [49],inactive
same,Activity,MCF7 [50],inactive
same,Activity,MCF7 [51],inactive
